Source: patent US12552783B2, “Modulators of proteolysis and associated methods of use” (Arvinas Operations, Inc., priority 2018, dated 2026)

Target: KRas (Homo sapiens, UniProt P01116, G12C)
Test: KRas degradation in NCI-H2030 cells by Western blot, normalized to GAPDH (data of Table 14)
Assay type: cell-based
Design: host or cells: NCI-H2030
Details: for Dmax: NCI-H2030; for Percent Degradation at Indicated Concentration (μM): 0.1: 0.1 μM
Method in brief: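 KRas/GAPDH band ratio vs DMSO lane gives % degradation; values under 25% were estimated visually, the rest quantitated. Cells are G12C homozygous, serum-free for 24 h, then dosed at 0.3/1/3 μM (0.1% DMSO). VHL-based compounds 24 h, others 72 h.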

| Percent Degradation at Indicated Concentration (μM) (H2030, 0.3 μM) | Percent Degradation at Indicated Concentration (μM) (H2030, 1 μM) | Percent Degradation at Indicated Concentration (μM) (H2030, 3 μM) | Dmax | SMILES | also measured |
| --- | --- | --- | --- | --- | --- |
| C (Percent Degradation: C ≤ 35) | C (Percent Degradation: C ≤ 35) | C (Percent Degradation: C ≤ 35) | ≤ 35% | C=CC(=O)N1CCN(c2nc(OC3CCN(CCOCCOCCOCCOCC(=O)N[C@H](C(=O)N4C[C@H](O)C[C@H]4C(=O)N[C@@H](C)c4ccc(-c5scnc5C)cc4)C(C)(C)C)CC3)nc3c(F)c(-c4cc(O)cc5ccccc45)c(Cl)cc23)CC1 [compound 474, (2S,4R)-1-((2S)-17-(4-((4-(4-acryloylpiperazin-1-yl)-6-chloro-8-fluoro-7-(3-hydroxynaphthalen-1-yl)quinazolin-2-yl)oxy)piperidin-1-yl)-2-(tert-butyl)-4-oxo-6,9,12,15-tetraoxa-3-azaheptadecanoyl)-4-hydroxy-N-((S)-1-(4-(4-methylthiazol-5-yl)phenyl)ethyl)pyrrolidine-2 carboxamide] |  |
| C (Percent Degradation: C ≤ 35) | C (Percent Degradation: C ≤ 35) | C (Percent Degradation: C ≤ 35) | ≤ 35% | C=CC(=O)N1CCN(c2nc(NCCC(=O)N(C)CCOCCOCCOCCNc3cccc4c3C(=O)N(C3CCC(=O)NC3=O)C4=O)nc3c(F)c(-c4c(O)cccc4F)c(Cl)cc23)CC1 [compound 113, 3-(((S)-4-(4-acryloylpiperazin-1-yl)-6-chloro-8-fluoro-7-(2-fluoro-6-hydroxyphenyl)quinazolin-2-yl)amino)-N-(2-(2-(2-(2-((2-(2,6-dioxopiperidin-3-yl)-1,3-dioxoisoindolin-4-yl)amino)ethoxy)ethoxy)ethoxy)ethyl)-N-methylpropanamide] |  |

More lines, now with the values behind:

| SMILES | Percent Degradation at Indicated Concentration (μM) (H2030, 0.3 μM) | Percent Degradation at Indicated Concentration (μM) (H2030, 1 μM) | Percent Degradation at Indicated Concentration (μM) (H2030, 3 μM) | Dmax | also measured |
| --- | --- | --- | --- | --- | --- |
| C=CC(=O)N1CCN(c2nc(NCCC(=O)N(C)CCOCCOCCOCCOCC(=O)N[C@H](C(=O)N3C[C@H](O)C[C@H]3C(=O)N[C@@H](C)c3ccc(-c4scnc4C)cc3)C(C)(C)C)nc3c(F)c(-c4c(O)cccc4F)c(Cl)cc23)CC1 (atropisomer, axis not shown) [compound 212, (2S,4R)-1-((S)-21-(((R)-4-(4-acryloylpiperazin-1-yl)-6-chloro-8-fluoro-7-(2-fluoro-6-hydroxyphenyl)quinazolin-2-yl)amino)-2-(tert-butyl)-18-methyl-4,19-dioxo-6,9,12,15-tetraoxa-3,18-diazahenicosanoyl)-4-hydroxy-N-((S)-1-(4-(4-methylthiazol-5-yl)phenyl)ethyl)pyrrolidine-2-carboxamide] | C (Percent Degradation: C ≤ 35) | C (Percent Degradation: C ≤ 35) | C (Percent Degradation: C ≤ 35) | ≤ 35% |  |
| C=CC(=O)N1CCN(c2nc(NCCC(=O)N(C)CCOCC(=O)N[C@H](C(=O)N3C[C@H](O)C[C@H]3C(=O)N[C@@H](C)c3ccc(-c4scnc4C)cc3)C(C)(C)C)nc3c(F)c(-c4cc(O)cc5ccccc45)c(Cl)cc23)CC1 [compound 191, (2S,4R)-1-((2S)-2-(2-(2-(3-((4-(4-acryloylpiperazin-1-yl)-6-chloro-8-fluoro-7-(3-hydroxynaphthalen-1-yl)quinazolin-2-yl)amino)-N-methylpropanamido)ethoxy)acetamido)-3,3-dimethylbutanoyl)-4-hydroxy-N-((S)-1-(4-(4-methylthiazol-5-yl)phenyl)ethyl)pyrrolidine-2-carboxamide] |  |  |  |  | Percent Degradation at Indicated Concentration (μM): 0.1 (H2030 cells): C (C ≤ 35); Percent Degradation at Indicated Concentration (μM): 0.3 (H2030 cells, 0.3 μM): C (C ≤ 35); Percent Degradation at Indicated Concentration (μM): 1 (H2030 cells, 1 μM): C (C ≤ 35); Dmax (H2030 cells): ≤ 35% |
| C=CC(=O)N1CCN(c2nc(O[C@H](C)CN3CCC(OCCOCCOCCOc4ccc5c(c4)C(=O)N(C4CCC(=O)NC4=O)C5=O)CC3)nc3c2CCN(c2cc(O)cc4ccccc24)C3)CC1 (stereo partly drawn) [compound 418, 5-(2-(2-(2-((1-((R)-2-((4-(4-acryloylpiperazin-1-yl)-7-(3-hydroxynaphthalen-1-yl)-5,6,7,8-tetrahydropyrido[3,4-d]pyrimidin-2-yl)oxy)propyl)piperidin-4-yl)oxy)ethoxy)ethoxy)ethoxy)-2-(2,6-dioxopiperidin-3-yl)isoindoline-1,3-dione] |  |  |  |  | Percent Degradation at Indicated Concentration (μM) (H2030 cells, 0.3 μM): C (Percent Degradation: C ≤ 35); Percent Degradation at Indicated Concentration (μM) (H2030 cells, 1 μM): C (Percent Degradation: C ≤ 35); Percent Degradation at Indicated Concentration (μM) (H2030 cells, 3 μM): C (Percent Degradation: C ≤ 35) |
| CCC(=O)N1CCN(c2nc(NCCC(=O)N(C)CCOCCOCCOCCOCCOc3ccc4c(c3)CN(C3CCC(=O)NC3=O)C4=O)nc3c(F)c(-c4cc(O)cc5ccccc45)c(Cl)cc23)CC1 (stereo not shown) [compound 54, 3-((6-chloro-8-fluoro-7-(3-hydroxynaphthalen-1-yl)-4-(4-propionylpiperazin-1-yl)quinazolin-2-yl)amino)-N-(14-((2-(2,6-dioxopiperidin-3-yl)-1-oxoisoindolin-5-yl)oxy)-3,6,9,12-tetraoxatetradecyl)-N-methylpropanamide] |  |  |  |  | Percent Degradation at Indicated Concentration (μM): 0.3 (H2030 cells, 0.3 μM): C (C ≤ 35); Percent Degradation at Indicated Concentration (μM): 1 (H2030 cells, 1 μM): C (C ≤ 35); Percent Degradation at Indicated Concentration (μM): 3 (H2030 cells, 3 μM): C (C ≤ 35); Dmax (H2030 cells): ≤ 35% |
| C=CC(=O)N1CCN(c2nc(NCCC(=O)N(C)CCOCCOCC(=O)N[C@H](C(=O)N3C[C@H](O)C[C@H]3C(=O)N[C@@H](C)c3ccc(-c4scnc4C)cc3)C(C)(C)C)nc3c(F)c(-c4cc(O)cc5ccccc45)c(Cl)cc23)CC1 [compound 192, (2S,4R)-1-((2S)-15-((4-(4-acryloylpiperazin-1-yl)-6-chloro-8-fluoro-7-(3-hydroxynaphthalen-1-yl)quinazolin-2-yl)amino)-2-(tert-butyl)-12-methyl-4,13-dioxo-6,9-dioxa-3,12-diazapentadecanoyl)-4-hydroxy-N-((S)-1-(4-(4-methylthiazol-5-yl)phenyl)ethyl)pyrrolidine-2-carboxamide] |  |  |  |  | Percent Degradation at Indicated Concentration (μM): 0.1 (H2030 cells): C (C ≤ 35); Percent Degradation at Indicated Concentration (μM): 0.3 (H2030 cells, 0.3 μM): C (C ≤ 35); Percent Degradation at Indicated Concentration (μM): 1 (H2030 cells, 1 μM): C (C ≤ 35); Dmax (H2030 cells): ≤ 35% |
| C=CC(=O)N1CCN(c2nc(NCCC(=O)N(C)CCOCCOCCOc3cc(-c4scnc4C)ccc3CNC(=O)[C@@H]3C[C@@H](O)CN3C(=O)[C@@H](c3cc(C)no3)C(C)C)nc3c(F)c(-c4cc(O)cc5ccccc45)c(Cl)cc23)CC1 [compound 341, (2S,4R)-N-(2-(2-(2-(2-(3-((4-(4-acryloylpiperazin-1-yl)-6-chloro-8-fluoro-7-(3-hydroxynaphthalen-1-yl)quinazolin-2-yl)amino)-N-methylpropanamido)ethoxy)ethoxy)ethoxy)-4-(4-methylthiazol-5-yl)benzyl)-4-hydroxy-1-((R)-3-methyl-2-(3-methylisoxazol-5-yl)butanoyl)pyrrolidine-2-carboxamide] | C (Percent Degradation: C ≤ 35) | C (Percent Degradation: C ≤ 35) | C (Percent Degradation: C ≤ 35) | ≤ 35% |  |
| CN(CCOCCOc1ccc2c(c1)C(=O)N(C1CCC(=O)NC1=O)C2=O)C(=O)CCNc1nc(N2CCN(C(=O)C(O)O)CC2)c2cc(Cl)c(-c3c(O)cccc3F)c(F)c2n1 [compound 149, 3-(((S)-6-chloro-4-(4-(2,2-dihydroxyacetyl)piperazin-1-yl)-8-fluoro-7-(2-fluoro-6-hydroxyphenyl)quinazolin-2-yl)amino)-N-(2-(2-((2-(2,6-dioxopiperidin-3-yl)-1,3-dioxoisoindolin-5-yl)oxy)ethoxy)ethyl)-N-methylpropanamide] |  |  |  |  | Percent Degradation at Indicated Concentration (μM) (H2030 cells, 3 μM): C (Percent Degradation: C ≤ 35) |
| C=CC(=O)N1CCN(c2nc(NCCC(=O)N(C)CCOCCOc3ccc(-c4csc([C@@H]5CCCN5C(=O)[C@@H](NC(=O)[C@H](C)NC)C5CCCCC5)n4)c4ccccc34)nc3c(F)c(-c4c(O)cccc4F)c(Cl)cc23)CC1 (atropisomer, axis not shown) [compound 276, 3-((4-(4-acryloylpiperazin-1-yl)-6-chloro-8-fluoro-7-((S)-2-fluoro-6-hydroxyphenyl)quinazolin-2-yl)amino)-N-(2-(2-((4-(2-((S)-1-((S)-2-cyclohexyl-2-((S)-2-(methylamino)propan-amido)acetyl)pyrrolidin-2-yl)thiazol-4-yl)naphthalen-1-yl)oxy)ethoxy)ethyl)-N-methylpropanamide] | C (Percent Degradation: C ≤ 35) | C (Percent Degradation: C ≤ 35) | C (Percent Degradation: C ≤ 35) | ≤ 35% |  |
| Cc1ncsc1-c1ccc([C@H](C)NC(=O)[C@@H]2C[C@@H](O)CN2C(=O)[C@@H](NC(=O)COCCN(C)C(=O)CCNc2nc(N3CCN(C(=O)C(O)O)CC3)c3cc(Cl)c(-c4c(O)cccc4F)c(F)c3n2)C(C)(C)C)cc1 (atropisomer, axis not shown) [compound 234, (2S,4R)-1-((S)-2-(2-(2-(3-(((S)-6-chloro-4-(4-(2,2-dihydroxyacetyl)piperazin-1-yl)-8-fluoro-7-(2-fluoro-6-hydroxyphenyl)quinazolin-2-yl)amino)-N-methylpropanamido)ethoxy)acetamido)-3,3-dimethylbutanoyl)-4-hydroxy-N-((S)-1-(4-(4-methylthiazol-5-yl)phenyl)ethyl)pyrrolidine-2-carboxamide] | C (Percent Degradation: C ≤ 35) | C (Percent Degradation: C ≤ 35) | C (Percent Degradation: C ≤ 35) | ≤ 35% |  |
